Measured values published in patent publication US8530465B2, “1, 2-disubstituted amido-anthraquinone derivatives, preparation method and application thereof” (National Defense Medical Center, priority 2010, dated 2013).

Experiments:
Format in all cases: cell-based, human
IGROV1 = assay: NCI drug screen, IGROV1; details: IGROV1 (Ovarian Cancer); 1.00E−5 Molar
Description: (§1) In brief, cellular protein levels were determined after 48 hours of drug exposure by sulforhodamine B colorimetry. Through the use of a time 0 cell control, the cell growth can be determined for each cell line thus allowing calculations of the 50% growth inhibitory concentration (GI50), the total growth inhibition (TGI), and the 50% lethal concentration (LC50). Comparison to plates not exposed to drug permits determination of concentration and times of exposure conferring 50% net growth inhibition (GI50), TGI, and 50% cell kill (LC50).
(§2) The screening system in United State National Cancer Institute (NCI) is consisted of 60 kinds of different human cancer cells, which can be used to assay the growth-inhibiting ability or cell toxicity of a compound against various cancer and tumor at a certain concentration.

MDA-MB-468 = assay: NCI drug screen, MDA-MB-468; details: MDA-MB-468 (Breast Cancer); 1.00E−5 Molar
Description: as §1, §2

UO-31 = assay: NCI drug screen, UO-31; details: UO-31 (Renal Cancer); 1.00E−5 Molar
Description: as §1, §2

MALME-3M = assay: NCI drug screen, MALME-3M; details: MALME-3M (Melanoma); 1.00E−5 Molar
Description: as §1, §2

OVCAR-4 = assay: NCI drug screen, OVCAR-4; details: OVCAR-4 (Ovarian Cancer); 1.00E−5 Molar
Description: as §1, §2

BT-549 = assay: NCI drug screen, BT-549; details: BT-549 (Breast Cancer); 1.00E−5 Molar
Description: as §1, §2

UACC-62 = assay: NCI drug screen, UACC-62; details: UACC-62 (Melanoma); 1.00E−5 Molar
Description: as §1, §2

SK-OV-3 = assay: NCI drug screen, SK-OV-3; details: SK-OV-3 (Ovarian Cancer); 1.00E−5 Molar
Description: as §1, §2

[1] = MTT assay, PhTERT-SEAP (H1299); details: human, H1299 cells carrying the PhTERT-SEAP reporter, PhTERT-SEAP (H1299); for viability at 1 μM: Conc. 1 μM, read-out: Relative MTT viability (%); for viability at 10 μM: Conc. 10 μM; for viability at 10 μM / viability at 100 μM: read-out: Relative MTT viability (%) (converted); for viability at 100 μM: Conc. 100 μM
Outline: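 Cultured cells received MTT for 4 h at 37 °C, then lysis buffer overnight at 37 °C. Optical density was read at 550 nm.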

PC-3 = assay: NCI drug screen, PC-3; details: PC-3 (Prostate Cancer); 1.00E−5 Molar
Description: as §1, §2

SF-539 = assay: NCI drug screen, SF-539; details: SF-539 (CNS Cancer); 1.00E−5 Molar
Description: as §1, §2

T-47D = assay: NCI drug screen, T-47D; details: T-47D (Breast Cancer); 1.00E−5 Molar
Description: as §1, §2

SNB-19 = assay: NCI drug screen, SNB-19; details: SNB-19 (CNS Cancer); 1.00E−5 Molar
Description: as §1, §2

OVCAR-8 = assay: NCI drug screen, OVCAR-8; details: OVCAR-8 (Ovarian Cancer); 1.00E−5 Molar
Description: as §1, §2

COLO 205 = assay: NCI drug screen, COLO 205; details: COLO 205 (Colon Cancer); 1.00E−5 Molar
Description: as §1, §2

SK-MEL-5 = assay: NCI drug screen, SK-MEL-5; details: SK-MEL-5 (Melanoma); 1.00E−5 Molar
Description: as §1, §2

U251 = assay: NCI drug screen, U251; details: U251 (CNS Cancer); 1.00E−5 Molar
Description: as §1, §2

RXF 393 = assay: NCI drug screen, RXF 393; details: RXF 393 (Renal Cancer); 1.00E−5 Molar
Description: as §1, §2

786-0 = assay: NCI drug screen, 786-0; details: 786-0 (Renal Cancer); 1.00E−5 Molar
Description: as §1, §2

SR = assay: NCI drug screen, SR; details: SR (Leukemia); 1.00E−5 Molar
Description: as §1, §2

SF-268 = assay: NCI drug screen, SF-268; details: SF-268 (CNS Cancer); 1.00E−5 Molar
Description: as §1, §2

OVCAR-5 = assay: NCI drug screen, OVCAR-5; details: OVCAR-5 (Ovarian Cancer); 1.00E−5 Molar
Description: as §1, §2

SK-MEL-28 = assay: NCI drug screen, SK-MEL-28; details: SK-MEL-28 (Melanoma); 1.00E−5 Molar
Description: as §1, §2

NCI-H23 = assay: NCI drug screen, NCI-H23; details: NCI-H23 (Non-Small Cell Lung Cancer); 1.00E−5 Molar
Description: as §1, §2

OVCAR-3 = assay: NCI drug screen, OVCAR-3; details: OVCAR-3 (Ovarian Cancer); 1.00E−5 Molar
Description: as §1, §2

SK-MEL-2 = assay: NCI drug screen, SK-MEL-2; details: SK-MEL-2 (Melanoma); 1.00E−5 Molar
Description: as §1, §2

MOLT-4 = assay: NCI drug screen, MOLT-4; details: MOLT-4 (Leukemia); 1.00E−5 Molar
Description: as §1, §2

NCI/ADR-RES = assay: NCI drug screen, NCI/ADR-RES; details: for Growth Percent: NCI/ADR-RES (Ovarian Cancer), 1.00E−5 Molar; for drug-resistance against adriamycin (ADR): human multiple drug-resistant cell NCI/ADR-RES
Description: as §1, §2

EKVX = assay: NCI drug screen, EKVX; details: EKVX (Non-Small Cell Lung Cancer); 1.00E−5 Molar
Description: as §1, §2

MDA-MB-435 = assay: NCI drug screen, MDA-MB-435; details: MDA-MB-435 (Melanoma); 1.00E−5 Molar
Description: as §1, §2

SMILES	Growth Percent (IGROV1) [%]	Growth Percent (MDA-MB-468) [%]	Growth Percent (UO-31) [%]	Growth Percent (MALME-3M) [%]	Growth Percent (OVCAR-4) [%]	Growth Percent (BT-549) [%]	Growth Percent (UACC-62) [%]	viability at 1 μM [1] [%]	viability at 10 μM [1] [%]	Growth Percent (SF-539) [%]	Growth Percent (SNB-19) [%]	Growth Percent (SK-MEL-5) [%]	Growth Percent (U251) [%]	Growth Percent (786-0) [%]	Growth Percent (SR) [%]	Growth Percent (SF-268) [%]	Growth Percent (OVCAR-5) [%]	Growth Percent (SK-MEL-28) [%]	Growth Percent (NCI-H23) [%]	Growth Percent (OVCAR-3) [%]	further results
Cc1ccc(C(=O)Nc2ccc3c(c2NC(=O)c2ccc(C)cc2)C(=O)c2ccccc2C3=O)cc1 [CC-04, 1,2-bis-(4-methylbenzamido)-anthraquinone]	78.71	104.17	66.54	127.16	104.32	95.39	87.50	100 ± 4.4	117	97.26	103.91	94.04	91.73	116.17	87.69	98.91	110.18	99.46	90.57	97.90	Growth Percent (SK-OV-3): 109.62%; viability at 100 μM [1]: 62%; Growth Percent (PC-3): 82.91%; Growth Percent (T-47D): 100.00%; Growth Percent (OVCAR-8): 85.43%; Growth Percent (COLO 205): 108.57%; Growth Percent (RXF 393): 88.25%; Growth Percent (SK-MEL-2): 100.65%; Growth Percent (MOLT-4): 89.63%
Cc1ccc(C(=O)Nc2c(NC(=O)CCl)ccc3c2C(=O)c2ccccc2C3=O)cc1 [CC-12, 1-(4-methylbenzamido)-2-(chloroacetamido)-anthraquinone]	51.41	−83.42	42.91	−22.41	34.52	28.19	−67.80	104 ± 7.83	2.77	−31.42	88.40	−98.72	−44.02	11.30	−19.84	14.63	109.55	−31.94	−85.89	−92.86	Growth Percent (NCI/ADR-RES): 72.17%; drug-resistance against adriamycin (ADR) (NCI/ADR-RES): possessed drug-resistance against adriamycin (ADR); Growth Percent (SK-OV-3): 106.24%; Growth Percent (PC-3): 6.81%; Growth Percent (T-47D): −49.46%; Growth Percent (EKVX): 88.22%; Growth Percent (OVCAR-8): 8.72%; Growth Percent (COLO 205): −53.43%; Growth Percent (MDA-MB-435): 4.82%; Growth Percent (SK-MEL-2): 52.00%; Growth Percent (MOLT-4): −23.17%
O=C(CCl)Nc1ccc2c(c1NC(=O)Cc1ccccc1)C(=O)c1ccccc1C2=O [CC-23, 1-[2-(phenyl)acetylamino]-2-(chloroacetamido)-anthraquinone]	41.03	51.02	58.19	47.07	80.40	79.78	59.67	82 ± 1.79	5.94	107.09	124.27	51.32	66.17	97.26	−31.25	80.14	119.04	88.68	64.75	86.38	Growth Percent (NCI/ADR-RES): 86.87%; drug-resistance against adriamycin (ADR) (NCI/ADR-RES): possessed drug-resistance against adriamycin (ADR); viability at 100 μM [1]: 3.98%; Growth Percent (EKVX): 102.08%; Growth Percent (MDA-MB-435): 80.40%; Growth Percent (SK-MEL-2): −6.49%; Growth Percent (MOLT-4): 11.40%
